As a reminder, the EC50 is the midpoint of the concentration-response curve.

Experimental findings from US10308617B2, “Triazole benzamide derivatives and the compositions and methods of treatment regarding the same” (An2H Discovery Limited, priority 2016, dated 2019) are described below.

The target in the assay is T1, Parkin ligase (Homo sapiens, UniProt O60260).
T1 sequence (O60260 1-465): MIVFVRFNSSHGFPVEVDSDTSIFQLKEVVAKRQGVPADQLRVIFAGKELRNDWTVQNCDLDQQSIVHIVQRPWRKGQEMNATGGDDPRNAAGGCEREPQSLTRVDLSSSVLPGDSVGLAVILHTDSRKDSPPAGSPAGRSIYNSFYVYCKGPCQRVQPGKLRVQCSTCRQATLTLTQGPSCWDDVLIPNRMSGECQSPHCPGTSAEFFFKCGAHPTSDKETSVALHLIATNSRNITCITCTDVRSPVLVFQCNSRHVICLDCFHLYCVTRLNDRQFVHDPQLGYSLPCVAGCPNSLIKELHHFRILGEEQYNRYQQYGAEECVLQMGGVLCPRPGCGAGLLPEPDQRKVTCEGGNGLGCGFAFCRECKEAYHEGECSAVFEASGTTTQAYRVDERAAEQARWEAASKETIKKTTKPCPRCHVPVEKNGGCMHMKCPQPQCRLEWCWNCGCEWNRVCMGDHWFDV
The assay can be described thus: Activity-Based Probe Assay using an Ubiquitin vinyl sulfone probe (TR-FRET). To be noted: Parkin activation, HA-Ub-VS probe, heat activated Parkin; read-out: Probe Assay EC50 (μM) [Example 2]. Type of assay: biochemical. The method, then:
An Ubiquitin vinyl sulfone probe can be used that irreversibly binds to the active site cysteine of Parkin ligase. Covalent attachment of the probe to the Parkin can be monitored by TR-FRET. Candidate activator compounds can be identified by increasing the activity of Parkin ligase due to an increase in TR-FRET signal. Screening for activating compounds can be distinguished from the controls as follows: • 100% activation signal=Heat activated Parkin+100 nM control activator in DMSO. • 0% activation signal=Heat activated Parkin+DMSO only. • Parkin activators can be identified by an increase of the 0% activation signal TR-FRET signal.
• Assay Plate: White 384 well plate (Corning 3572) • Enzyme: Parkin-His tagged 203 μM (10.5 mg/ml) • Probe: Ubiquitin vinyl-sulfone (HA-Ub-VS Boston Biochem U-212) • DMSO: DMSO (Sigma cat # D4540-100ML) • Reaction Buffer: 50 mM HEPES (pH 8.5), 150 mM NaCl, 0.01% Tween 20, 0.1% BSA • Detection Buffer: 50 mM HEPES (pH 8.5), 150 mM NaCl, 0.01% Tween 20, 0.1% BSA, 800 mM KF • Detection Reagent A: 2.6 nM Anti-6HIS-Eu cryptate and 40 nM Anti-HA-XL665 in detection buffer • Eu cryptate: Anti-6HIS-Eu cryptate (CisBio 61HISKLA) • XL665: Anti-HA-XL665 (CisBio 610HAXLA) Enzyme Reaction (15 min pre incubation Parkin with activator only) • Parkin: 40 nM • HA-Ub-VS Probe: 70 nM • Activator/DMSO: 2× Activator/2% DMSO • Reaction time: 60 minutes • Temperature: 22° C. • Total volume: 10 μl reaction Detection Reaction • Take 10 μl of Enzyme Reaction above and add 10 μl detection Reagent A under the following conditions: • Reaction time: 60 minutes • Temperature: 22° C. • Total volume: 20 μl
Assay procedure (Using HP D-300 compound dispenser and Bravo for the operation): • 1) Heat activate Parkin in reaction buffer (500 μl/1.5 ml tube: Eppendorf Thermomixer 5 minutes, 400 rpm at 58° C. and put on ice until needed). • 2) Load assay plate wells with 4.8 μl 84.5 nM Parkin in reaction buffer by use of Bravo. • 3) Deliver 0.2 μl 200× activator candidates in DMSO by use of HP D-300 compound dispenser. Highest 200× concentration=[…] and then twofold dilutions. • 4) Spin 1000 rpm, 2 minutes, at room temp. • 5) Incubate plate for 15 minutes at room temp. • 6) Add 5 μl 140 nM HA-Ub-VS Probe in reaction buffer by use of Bravo. • 7) Spin 1000 rpm, 2 minutes, at room temp. • 8) Incubate plate for 60 minutes at room temp. • 9) Add 10 μl 2.6 nM Anti-6HIS-Eu cryptate and 40 nM Anti-HA-XL665 in detection buffer. • 10) Spin 1000 rpm, 2 minutes, at room temp. • 11) Incubate plate for 60 minutes at room temp. • 12) Read plates on Perkin Elmer Envision instrument with the following parameters: • LANCE dual laser protocol loaded into the Envision® software • Top Mirror: LANCE/DELFIA Duel/Bias (Bar code 446) • Emission Filter: APC 665 EM (Bar code 205) • 2nd Emission Filter: Europium 615 EM (Bar code 203) • Read 655 nm (channel 1) and 615 nm (channel 2) wavelengths on Envision®
Data Analysis: The Data can be read in CSV files. There are two tables in those CSV files, which are the values of 655 nm (channel 1) and 615 nm (channel 2) wavelengths respectively. The data is converted to an HTRF Ratio=(Channel 1/Channel 2)*10,000
The average of all the 0 uM controls (DMSO only)=BKGD (Background—0% activation). Subtract BKGD from each HTRF Ratio value=HTRF-BKGD. The average of all the […] 100 nM control activator in DMSO controls=Max (100% activation). The following equation is then used to calculate % Activation for each well/candidate as follows: % Activation=(HTRF-BKGD/Max)*100.
Graphpad Prisim was used with Transform X values: X=Log(X) and nonlinear regression (dose-response-stimulation): Log(agonist) vs Response—variable slope (four parameters) with constrains set to Bottom=0 and Top=100.
The Activity-Based Probe Assay was performed with various compounds in Tables 1-3.
On the technique in general: Time-resolved FRET reads energy transfer from a long-lived donor to a nearby acceptor.

For `Cc1ccccc1C(=O)Nc1nc(-c2ccncc2)nn1-c1ccccc1` [Compound S2], the EC50 is greater than 100 µM.
On to `Cc1ccccc1C(=O)Nc1nc(-c2ncccc2C)nn1-c1ccccc1` [Compound S3, 2-methyl-N-(3-(3-methylpyridin-2-yl)-1-phenyl-1H-1,2,4-triazol-5-yl)benzamide], for which the concentration giving a half-maximal response (EC50) amounted to 3 µM.
As for `Cc1ccccc1C(=O)Nc1nc(-c2cccnc2)nn1-c1ccccc1` [Compound T2], the EC50 was greater than 100 µM.
Under `O=C(/C=C/c1ccccc1)Nc1nc(NC(=O)c2ccccc2)nn1-c1ccccn1` [Compound U1] stands 25.9 µM.
Take `c1ccc(-n2nc(-c3ccccn3)nc2Nc2ncnc3ccccc23)cc1` [Compound U2]: the EC50 worked out at 22 µM.
Under `O=C(Nc1nc(NC(=O)c2cccc([N+](=O)[O-])c2)n(-c2ccccc2)n1)c1ccccc1` [Compound V1] stands greater than 100 µM; under `Cc1ccccc1C(=O)Nc1nc(C2CCOCC2)nn1-c1ccccc1` [Compound V2], greater than 100 µM; under `O=C(Nc1nc(NC(=O)c2ccco2)n(-c2ccccc2)n1)c1ccccc1` [Compound W1], 10.4 µM.
Take `Cc1ccccc1C(=O)Nc1nc(NC(=O)c2ccccc2C)n(C(C)C)n1` [Compound W2]: the EC50 is greater than 100 µM.
Under `O=C(Nc1nc(NC(=O)c2ccccc2)n(-c2ccc(-c3ccccc3)cc2)n1)c1ccccc1` [Compound X1] stands 62 µM; under `Cc1ccccc1C(=O)Nc1nc(NC(=O)c2ccccc2C)n(-c2ccccn2)n1` [Compound X2], greater than 100 µM.
For the compound `O=C(Nc1nc(-c2ccccn2)nn1-c1ccccc1)c1ccccc1` [Compound Y1, N-(1-phenyl-3-(pyridin-2-yl)-1H-1,2,4-triazol-5-yl)benzamide], the EC50 was 2 µM.
As to `O=C(Nc1nc(NC(=O)c2ccccc2)n(-c2ccc(OC(F)(F)F)cc2)n1)c1ccccc1` [Compound Z1], the EC50 was 1 µM.
Take `O=C(Nc1nc(NC(=O)c2ccc(I)cc2)n(-c2ccccc2)n1)c1ccc(I)cc1` [D]: the EC50 is greater than 100 µM.
The result for `CN(C(=O)c1ccccc1)c1nc(NC(=O)c2ccccc2)n(-c2ccccc2)n1` [G] reads greater than 100 µM.
With `O=C(Nc1nc(Nc2ncnc3ccccc23)nn1-c1ccccc1)c1ccccc1` [I], the EC50 was greater than 100 µM.
Under `CN(C(=O)c1ccccc1)c1nc(N(C)C(=O)c2ccccc2)n(-c2ccccc2)n1` [J] stands greater than 100 µM.
Regarding `Cc1ccccc1-n1nc(NC(=O)c2ccccc2)nc1NC(=O)c1ccccc1` [M], the EC50 is greater than 100 µM.
Consider `O=C(Nc1nc(-c2ccccn2)nn1-c1ccccc1)c1ccccc1` [T], for which the EC50 was greater than 100 µM.
Take `O=C(Nc1nc(Nc2nccc3ccccc23)n(-c2ccccc2)n1)c1ccccc1` [U]: the EC50 was greater than 100 µM.
On to `CN(C(=O)c1ccccc1)c1nc(NC(=O)c2ccccc2)nn1-c1ccccc1` [V], for which the EC50 is greater than 100 µM.
The result for `CCN(CC)c1nc(Nc2nc(NC(=O)c3ccccc3)nn2-c2ccccc2)c2ccccc2n1` [W] reads greater than 100 µM; that for `CCN(CC)c1nc(Nc2nc(NC(=O)c3ccccc3)nn2-c2ccccc2)nc2ccccc12` [X], greater than 100 µM; that for `O=C(Nc1nc(Nc2ncnc3ccccc23)n(-c2ccccc2)n1)c1ccco1` [Z], 9.1 µM.
